Test results from US20250304620A1, “ANTIMICROBIAL PEPTIDE AND APPLICATION THEREOF” (priority 2023, published 2025).
Read-outs that look alike come from different tables or passages of the source. Marks after values point to notes of the source that are not given here. Non-standard residues stand in square brackets, D forms with d. PEG500 = polyethylene glycol 500, conjugated to the C-terminus; 2Nal = N[C@@H](Cc1ccc2ccccc2c1)C(=O)O; PEG1000 = polyethylene glycol 1000

Experiments:
Type in all cases: in vivo, ICR mice
[1] = system: Methicillin-resistant Staphylococcus aureus (MRSA); conditions: 0.1 mL twice a day for 4 days, mouse back skin infection
Description: (§1) Both female and male ICR mice were used in the test, half of the female and male mice were taken and randomly assigned into groups, with 10 mice in each group, and kept in separate cages. The mice were divided into a blank group, a model group, a positive control Methicillin group, and topical formulation groups of AMPs LV-1 to LV-30. Suspensions of Methicillin-sensitive Staphylococcus aureus (NRS 384) and Methicillin-resistant Staphylococcus aureus (MRSA) were prepared, and their concentrations were adjusted to a concentration of 5×10^6 CFU/mL for subsequent use. Hair on backs of the mice was shaved with a shaver, wound was created on back skin of each mouse using a biopsy punch, and the wound was then infected with Methicillin-sensitive Staphylococcus aureus and Methicillin-resistant Staphylococcus aureus (0.1 mL, 5×10^6 CFU/mL) to establish infection models. Except for the blank group and the model group, all other groups received corresponding topical formulations applied directly to the infected areas, with a dose of 0.1 mL, twice a day for 4 consecutive days. On the day following the final administration, skin from the infected sites of each group was aseptically collected, and an antibacterial rate was calculated.

[2] = system: Methicillin-sensitive Staphylococcus aureus (NRS 384); conditions: 0.1 mL twice a day for 4 days, mouse back skin infection
Description: as §1

[3] = system: Pseudomonas aeruginosa ATCC 27853; test: Injectable formulations on mice infected with peritonitis; conditions: twice a day for 3 days; for Number of mice that died on each day after infection: day 1 / Number of mice that died on each day after infection: day 2 / Number of mice that died on each day after infection: day 3 / Number of mice that died on each day after infection: day 4 / Number of mice that died on each day after infection: day 5 / Average survival times (Days): n = 10; for Average survival times (Days): observed for 14 d
Procedure, shortened: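 ICR mice of both sexes (10 per group) infected intraperitoneally with 0.2 mL P. aeruginosa ATCC 27853 at 1×10^9 CFU/mL. Injectable formulations dosed by body weight via tail vein twice daily for 3 days; deaths and survival time recorded over 14 d.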

[4] = system: Escherichia coli ATCC 25922; test: Oral formulations on mice with systemic bacterial infection; conditions: three times a day for 7 days; for Number of mice that died on each day after infection: day 4 / Number of mice that died on each day after infection: day 5 / Number of mice that died on each day after infection: day 6 / Number of mice that died on each day after infection: day 7 / Number of mice that died on each day after infection: day 8 / Average survival times (Days): n = 10; for Average survival times (Days): observed for 14 d
Procedure, shortened: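 ICR mice of both sexes, 10 per group, infected i.p. with 0.2 mL E. coli ATCC 25922 at 1×10^7 CFU/mL. Compounds gavaged by body weight immediately after infection, three times daily for 7 days; deaths and survival time recorded over 14 d observation.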

Ac-RKLLXRLKXRK-PEG500 [LV-27] (Ac-RKLL[2Nal]RLK[2Nal]RK-PEG500) [polyethylene glycol 500 conjugated to C-terminal; X=3-(2-naphthyl)-alanine]
Inhibition rate against Methicillin-resistant Staphylococcus aureus (%) ([1]; topical formulation 0.2 mg/mL): 86.50% | Inhibition rate against Methicillin-resistant Staphylococcus aureus (%) ([1]; topical formulation 1 mg/mL): 89.66% | Inhibition rate against Methicillin-resistant Staphylococcus aureus (%) ([1]; topical formulation 5 mg/mL): 88.02% | Inhibition rate against Methicillin-sensitive Staphylococcus aureus (%) ([2]; topical formulation 0.2 mg/mL): 97.01% | Inhibition rate against Methicillin-sensitive Staphylococcus aureus (%) ([2]; topical formulation 1 mg/mL): 98.74% | Inhibition rate against Methicillin-sensitive Staphylococcus aureus (%) ([2]; topical formulation 5 mg/mL): 97.65% | Number of mice that died on each day after infection: day 1 ([3]; 0.2 mg/kg via tail vein): 2 Mouse | Number of mice that died on each day after infection: day 2 ([3]; 0.2 mg/kg via tail vein): 2 Mouse | Number of mice that died on each day after infection: day 3 ([3]; 0.2 mg/kg via tail vein): 0 Mouse | Number of mice that died on each day after infection: day 4 ([3]; 0.2 mg/kg via tail vein): 1 Mouse | Number of mice that died on each day after infection: day 5 ([3]; 0.2 mg/kg via tail vein): 1 Mouse | Average survival times (Days) ([3]; 0.2 mg/kg via tail vein): 7.1** Days | Number of mice that died on each day after infection: day 1 ([3]; 1 mg/kg via tail vein): 1 Mouse | Number of mice that died on each day after infection: day 2 ([3]; 1 mg/kg via tail vein): 1 Mouse | Number of mice that died on each day after infection: day 3 ([3]; 1 mg/kg via tail vein): 0 Mouse | Number of mice that died on each day after infection: day 4 ([3]; 1 mg/kg via tail vein): 1 Mouse | Number of mice that died on each day after infection: day 5 ([3]; 1 mg/kg via tail vein): 0 Mouse | Average survival times (Days) ([3]; 1 mg/kg via tail vein): 10.5**** Days | Number of mice that died on each day after infection: day 1 ([3]; 5 mg/kg via tail vein): 0 Mouse | Number of mice that died on each day after infection: day 2 ([3]; 5 mg/kg via tail vein): 3 Mouse | Number of mice that died on each day after infection: day 3 ([3]; 5 mg/kg via tail vein): 0 Mouse | Number of mice that died on each day after infection: day 4 ([3]; 5 mg/kg via tail vein): 1 Mouse | Number of mice that died on each day after infection: day 5 ([3]; 5 mg/kg via tail vein): 0 Mouse | Average survival times (Days) ([3]; 5 mg/kg via tail vein): 9.4*** Days | survival time of mice infected with Pseudomonas aeruginosa ([3]; tail vein, observed 14 d): superior to those of the Levofloxacin group | Number of mice that died on each day after infection: day 4 ([4]; 0.2 mg/kg gavage): 1 Mouse | Number of mice that died on each day after infection: day 5 ([4]; 0.2 mg/kg gavage): 1 Mouse | Number of mice that died on each day after infection: day 6 ([4]; 0.2 mg/kg gavage): 2 Mouse | Number of mice that died on each day after infection: day 7 ([4]; 0.2 mg/kg gavage): 1 Mouse | Number of mice that died on each day after infection: day 8 ([4]; 0.2 mg/kg gavage): 0 Mouse | Average survival times (Days) ([4]; 0.2 mg/kg gavage): 9.8** Days | Number of mice that died on each day after infection: day 4 ([4]; 1 mg/kg gavage): 0 Mouse | Number of mice that died on each day after infection: day 5 ([4]; 1 mg/kg gavage): 1 Mouse | Number of mice that died on each day after infection: day 6 ([4]; 1 mg/kg gavage): 1 Mouse | Number of mice that died on each day after infection: day 7 ([4]; 1 mg/kg gavage): 0 Mouse | Number of mice that died on each day after infection: day 8 ([4]; 1 mg/kg gavage): 1 Mouse | Average survival times (Days) ([4]; 1 mg/kg gavage): 11.7**** Days | Number of mice that died on each day after infection: day 4 ([4]; 5 mg/kg gavage): 0 Mouse | Number of mice that died on each day after infection: day 5 ([4]; 5 mg/kg gavage): 2 Mouse | Number of mice that died on each day after infection: day 6 ([4]; 5 mg/kg gavage): 1 Mouse | Number of mice that died on each day after infection: day 7 ([4]; 5 mg/kg gavage): 0 Mouse | Number of mice that died on each day after infection: day 8 ([4]; 5 mg/kg gavage): 0 Mouse | Average survival times (Days) ([4]; 5 mg/kg gavage): 11.4**** Days | survival time of mice infected with Escherichia coli ([4]; gavage, observed 14 d): superior to those of the Levofloxacin group

Ac-RKLLXRLKXRK-PEG1000 [LV-28] (Ac-RKLL[2Nal]RLK[2Nal]RK-PEG1000) [polyethylene glycol 1000 conjugated to C-terminal; X=3-(2-naphthyl)-alanine]
Inhibition rate against Methicillin-resistant Staphylococcus aureus (%) ([1]; topical formulation 0.2 mg/mL): 86.23% | Inhibition rate against Methicillin-resistant Staphylococcus aureus (%) ([1]; topical formulation 1 mg/mL): 87.81% | Inhibition rate against Methicillin-resistant Staphylococcus aureus (%) ([1]; topical formulation 5 mg/mL): 88.66% | Inhibition rate against Methicillin-sensitive Staphylococcus aureus (%) ([2]; topical formulation 0.2 mg/mL): 96.03% | Inhibition rate against Methicillin-sensitive Staphylococcus aureus (%) ([2]; topical formulation 1 mg/mL): 96.75% | Inhibition rate against Methicillin-sensitive Staphylococcus aureus (%) ([2]; topical formulation 5 mg/mL): 97.82% | Number of mice that died on each day after infection: day 1 ([3]; 1 mg/kg via tail vein): 1 Mouse | Number of mice that died on each day after infection: day 2 ([3]; 1 mg/kg via tail vein): 0 Mouse | Number of mice that died on each day after infection: day 3 ([3]; 1 mg/kg via tail vein): 1 Mouse | Number of mice that died on each day after infection: day 4 ([3]; 1 mg/kg via tail vein): 1 Mouse | Number of mice that died on each day after infection: day 5 ([3]; 1 mg/kg via tail vein): 1 Mouse | Average survival times (Days) ([3]; 1 mg/kg via tail vein): 9.7*** Days | Number of mice that died on each day after infection: day 4 ([4]; 1 mg/kg gavage): 1 Mouse | Number of mice that died on each day after infection: day 5 ([4]; 1 mg/kg gavage): 2 Mouse | Number of mice that died on each day after infection: day 6 ([4]; 1 mg/kg gavage): 1 Mouse | Number of mice that died on each day after infection: day 7 ([4]; 1 mg/kg gavage): 1 Mouse | Number of mice that died on each day after infection: day 8 ([4]; 1 mg/kg gavage): 0 Mouse | Average survival times (Days) ([4]; 1 mg/kg gavage): 9.7** Days
